Data published in patent US20230010299A1, “HETEROCYCLIC TRPML1 AGONISTS” (LIBRA THERAPEUTICS, INC., priority 2019, published 2023).
Read-outs that look alike come from different tables or passages of the source.

Key:
Format in all cases: cell-based
[1] = test system: autophagy reporter Rosella (LC3 tag) in HeK293 cell line; assay: Autophagy assay (reporter Rosella, imaging); details: HeK293 cells stably expressing reporter Rosella, 18 hours incubation, reference Torin-1 1 μM as max signal, read-out: Secondary Assays Autophagy qAC50
Description: Buffers and Reagents • Tyrode's buffer with 2 mM Ca^2+ in-house solution (130 mM NaCl, 5 mM KCl, 2 mM CaCl2), 1 mM MgCl2, 5 mM NaHCO3, 20 mM HEPES in water at pH 7.4; sterile filtered) • DMSO (Sigma) • Bis-benzimide H 33342 trihydrochloride (Hoechst 33342; Sigma-Aldrich) • Reference molecule (agonist): Torin-1, (#4247, Tocris) stock 1.2 mM in DMSO, stored at −20° C.
Reporter of Autophagy and Cell Line
Reporter Rosella: a fluorescent-based chimera constitutes by two fluorescent proteins, Green and Red variants, acting as a bimodal indicator of pH. […] The reporter is fused to sequence for autophagosome localization (LC3 tag).
The reporter Rosella have been stably expressed in HeK293 cell line and used as read-out.
Experiments have been performed in 384 MTP poly-lysine coated well format. Cells have been seeded in 384-w at a density of 6000 cells/well in 25 μl/well complete growth medium without antibiotics. Twenty-four hours later, cells have been treated with compounds and incubated for further 18 hours. Then the cells have been imaged and assayed for the response to various compounds using the reporter for autophagy expressed in the cells as readout.
The experiments were performed in a 384-well format according to the following procedure: • 24 h after seeding, cells were incubated with compounds at the desired concentration, and with the reference molecule (agonist) Torin-1 at a top concentration of 1 μM (max signal), for 18 hours at 37° C. and 5% CO2. The final percentage of DMSO was 0.3% in all the conditions. • Then the culture medium was carefully removed to avoid cells detachment and to discard red phenol into the medium and that can interfere with the measurements. • Staining of the nuclei was obtained by incubating the cells with 8 μM/well of Hoechst 3342 in standard Tyrode's buffer for 20 min at RT • Then the cells were carefully washed two times with standard Tyrode's buffer • Finally, the samples were acquired by recording three fluorescence emission channels (green, red and blue) at 20× magnification and with at least 3-4 fields of view per well in an Operetta CLS microscope (PerkinElmer). • Image analysis was performed by using Harmony software (PerkinElmer). The image analysis involved the following steps: flat-field illumination correction, nuclei segmentation, cell segmentations and identification of vesicles/granules within the cytosol compartments and representing the autophagy vesicles. Measurements of signal intensity ratio (Green to Red) and number of autophagy vesicles per cells were used to obtain information on the effects of compounds on the autophagy flux. • Data from image analysis measurements were finally loaded and analyzed for normalization and fitting procedures in Genedata Screener© software.

TRPML1 [2] = molecular target: T1, TRPML1 (Homo sapiens, UniProt Q9GZU1); assay: Cellular TRPML1 assay (FLIPR TETRA, GCaMP6f calcium read-out); details: HEK T-REx/GCaMP6f/TRPML1 cells; Ca2+ response over 300 s, normalized to ML-SA1 50 μM; Ca2+ free or Optimem condition not given; read-out: Ec50 (Activity of TRPML1 agonists)
T1 construct: expressed in transfected cells
In short: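 HEK T-REx cells stably expressing TRPML1 and GCaMP6f, assayed 24 h after seeding in Ca2+-free Tyrode's (pH 7.4) or Opti-MEM. Compounds injected on FLIPR Tetra (0.5% DMSO) in dose-response from 100 μM (1:2) or 50 μM (1:3.16); fluorescence kinetics 300 s, referenced to 50 μM ML-SA1 stimulator control.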

TRPML1 [3] = molecular target: T1, TRPML1; assay: TRPML1 automated patch-clamp (QPatch 16X); details: HEK T-REx/GcaMP6f/TRPML1 cells, current with compound/current in vehicle, extracellular pH 4.6
Description: TRPML1—Automated Patch-Clamp
HEK T-REx/GcaMP6f/TRPML1 cells were cultured in DMEM High Glucose (Lonza BioWhittaker cat. BE12-604F/U1; 500 mL) supplemented with Fetal Bovine Serum TET-FREE (Euroclone cat. EC S0182L; 50 mL, Penicillin-Streptomycin (BioWhittaker, cat. DE17-602E; 5 mL of 100× Solution), G418 (Sigma, cat. G8168; 0.25 mg/ml) and Zeocyn (InvivoGen, cat. ant-zn-1; 50 μg/ml).
HEK T-REx/GcaMP6f/TRPML1 cells were seeded 48 or 72 hours before experiment, at a concentration of 8*10^6/4*10^6 cells onto a T225 flask. Just before the experiments, cells were washed twice with D-PBS w/o Ca^2+/Mg^2+ (Euroclone cat. ECB4004L) and detached from the flask with trypsin-EDTA (Sigma cat. T4174; diluted 1/10). Cells were then re-suspended in the suspension solution: 25 mL EX-CELL ACF CHO medium(Sigma cat. C5467); 0.625 mL HEPES (Sigma cat. H0887); 0.25 mL of 100× Penicillin/Streptomycin (Euroclone cat. ECB3001D), 0.1 mL of Soybean Trypsin Inhibitor 10 mg/mL (Sigma cat. T6522) and placed on the QPatch 16X.
Dilution from stock were prepared just before the experiments in the extracellular solution (0.25% final DMSO concentration). DMSO solution was obtained from AppliChem (cat. A3672)
Patch Clamp Solutions: • Intracellular solution (mM): 120 CsMeSO3, 4 NaCl, 2 MgCl2, 10 EGTA, 20 HEPES, 2 Mg-ATP (pH 7.2 with CsOH). • Extracellular solution (mM): 140 NaGluconate, 5 KCl, 1 MgCl2, 2 CaCl2), 10 Glucose, 10 MES (pH 4.6 with HCl).
Patch Clamp Analysis—QPatch 16X
For the voltage clamp experiments on TRPML1, data were sampled at 5 KHz. After establishment of the seal and the passage in the whole cell configuration, the cells were held at −20 mV and the TRPML1 current was evoked using the voltage protocol illustrated in FIG. 2, applied every 5 sec. (50 ms at −20 mV; 20 ms at −120 mV, 1000 ms ramp from −120 to […]; 20 ms at +40 mV, and back to −20 mV); in the absence (vehicle period, i.e. 0.25% DMSO) and in the presence of increasing concentrations (3) of the compound under investigation.
Agonists: For data collection, the Sophion proprietary software was used and the analysis was performed off-line using Excel and GraphPad Prism (V 8.00). Results are reported in Table 6, expressed as TRPML1 current fold increase evoked by the compound under investigation (i.e. current in the presence of the compound/current in vehicle).

T1 sequence (Q9GZU1 whole entry): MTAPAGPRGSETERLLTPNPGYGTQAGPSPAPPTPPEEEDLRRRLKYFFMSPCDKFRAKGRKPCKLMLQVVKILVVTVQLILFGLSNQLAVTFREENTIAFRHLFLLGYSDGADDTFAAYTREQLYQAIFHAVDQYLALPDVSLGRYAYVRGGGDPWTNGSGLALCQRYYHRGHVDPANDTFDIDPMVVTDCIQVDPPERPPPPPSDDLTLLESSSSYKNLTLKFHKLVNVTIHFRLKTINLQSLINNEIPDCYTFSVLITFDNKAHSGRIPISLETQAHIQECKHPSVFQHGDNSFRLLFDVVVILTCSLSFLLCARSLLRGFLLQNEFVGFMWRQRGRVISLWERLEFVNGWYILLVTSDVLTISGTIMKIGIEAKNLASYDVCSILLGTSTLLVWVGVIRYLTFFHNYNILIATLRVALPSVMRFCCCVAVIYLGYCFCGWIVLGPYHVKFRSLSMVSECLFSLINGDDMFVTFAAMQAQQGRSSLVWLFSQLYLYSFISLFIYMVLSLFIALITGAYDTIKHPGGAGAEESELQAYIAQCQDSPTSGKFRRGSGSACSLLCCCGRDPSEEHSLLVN

Row | SMILES | EC50 ([1]; Homo sapiens) | EC50 (TRPML1 [2]) | Qpatch Assay TRPML1 agonism Current fold increase Mean ± SEM (n) (TRPML1 [3]; 0.3 μM compound) | Qpatch Assay TRPML1 agonism Current fold increase Mean ± SEM (n) (TRPML1 [3]; 3.0 μM compound) | Qpatch Assay TRPML1 agonism Current fold increase Mean ± SEM (n) (TRPML1 [3]; 30 μM compound) | EC50 [1]
1 | COC1CCCN(c2ccccc2NS(=O)(=O)c2ccc(S(=O)(=O)N(C)C)cc2)CC1 (racemic) [Example 40, N1-(2-(4-methoxyazepan-1-yl)phenyl)-N4,N4-dimethylbenzene-1,4-disulfonamide] | 1.3 µM | 3 µM |  |  |  | 
2 | CCc1ccc(S(=O)(=O)Nc2ccccc2N2CCC(C(=O)OC(C)(C)C)CC2)cc1 [Example 19, tert-butyl 1-(2-((4-ethylphenyl)sulfonamido)phenyl)piperidine-4-carboxylate] | 0.6 µM | 2.1 µM |  |  |  | 
3 | CCN(C(=O)c1ccc(S(=O)(=O)N(C)C)cc1)c1ccccc1N1CCN(C(=O)OC(C)(C)C)CC1 [Example 20, tert-butyl 4-(2-(4-(N,N-dimethylsulfamoyl)-N-ethylbenzamido)phenyl)piperazine-1-carboxylate] | 0.46 µM | 3.4 µM |  |  |  | 
4 | CN(C)S(=O)(=O)c1ccc(S(=O)(=O)Nc2ccccc2N2CCC(F)(F)CC2)cc1 [Example 33, N4-[2-(4,4-difluoropiperidin-1-yl)phenyl]-N1,N1-dimethylbenzene-1,4-disulfonamide] | 1.3 µM | 10.8 µM |  |  |  | 
5 | CC(C)N(C(=O)c1ccc(S(=O)(=O)N(C)C)cc1)c1ccccc1N1CCN(C(=O)OC(C)(C)C)CC1 [Example 46, tert-butyl 4-(2-(4-(N,N-dimethylsulfamoyl)-N-isopropylbenzamido)phenyl)piperazine-1-carboxylate] | 1.3 µM | 9.4 µM |  |  |  | 
6 | Cc1cc(S(=O)(=O)Nc2ccccc2N2CCN(C(=O)OC(C)(C)C)CC2)c(C)o1 [Example 58, tert-butyl 4-(2-((2,5-dimethylfuran)-3-sulfonamido)phenyl)piperazine-1-carboxylate] | 22.4 µM | 2.3 µM |  |  |  | 
7 | Cc1ccc(S(=O)(=O)Nc2ccccc2N2CCC(Oc3ccccn3)CC2)c(C)c1 [Example 65, 2,4-dimethyl-N-(2-(4-(pyridin-2-yloxy)piperidin-1-yl)phenyl)benzenesulfonamide] | 31.4 µM | 3.5 µM |  |  |  | 
8 | CCCOC1CCN(c2ccccc2NS(=O)(=O)c2cc(C)sc2C)CC1 [Example 68, 2,5-dimethyl-N-(2-(4-propoxypiperidin-1-yl)phenyl)thiophene-3-sulfonamide] | 15.3 µM | 4.6 µM |  |  |  | 
9 | COc1ccc(S(=O)(=O)Nc2ccccc2N2CCN(C(=O)OC(C)(C)C)CC2)cc1 [Example 84, t-butyl 4-[2-(4-methoxybenzenesulfonamido)phenyl]piperazine-1-carboxylate] |  | 4.2 µM | 8.6 ± 1.3 (2) | 32.9 ± 3.5 (2) | 42.7 ± 1.4 (2) | 
10 | CN(C)S(=O)(=O)c1ccc(S(=O)(=O)Nc2ccccc2N2CCCCCC2)cc1 [Example 85, N4-[2-(azepan-1-yl)phenyl]-N 1 ,N1-dimethylbenzene-1,4-disulfonamide] |  | 1.6 µM | 17.7 ± 5.5 (4) | 206 ± 167 (2) | 260 ± 202 (2) | 
11 | CC(C)CNC(=O)C1CCN(c2ccccc2NS(=O)(=O)c2ccc(S(=O)(=O)N(C)C)cc2)CC1 [Example 88, 1-{2-[4-(dimethylsulfamoyl)benzenesulfonamido]phenyl}-N-(2-methylpropyl)piperidine-4-carboxamide] |  | 6.5 µM | −0.066 ± 0.080 (3) | 3.9 ± 2.5 (3) | 125 ± 75.3 (3) | 
12 | Cc1ccc(S(=O)(=O)Nc2ccccc2N2CCC(C(=O)OC(C)(C)C)CC2)cc1 [Example 90] |  | 2.5 µM | 140 ± 44.1 (4) | 83.1 ± 34.0 (2) | 112 ± 38.1 (2) | 
13 | COc1ccc(S(=O)(=O)Nc2ccccc2N2CCC(C(=O)OC(C)(C)C)CC2)cc1 [Example 91] |  | 3.3 µM | 3.1 ± 1.2 (3) | 21.7 ± 7.9 (3) | 58.8 ± 16.6 (3) | 
14 | CC(C)N(C(=O)c1ccc(S(C)(=O)=O)cc1)c1ccccc1N1CCN(C(=O)OC(C)(C)C)CC1 [Example 96, tert-butyl 4-(2-(N-isopropyl-4-(methylsulfonyl)benzamrdo)phenyl)piperazine-1-carboxylate] |  | 7.3 µM |  |  |  | 11.2 µM
15 | Cc1nc(S(=O)(=O)Nc2ccccc2N2CCC(Oc3ccccn3)CC2)c(C)s1 [Example 99, 2,5-dimethyl-N-(2-(4-(pyridin-2-yloxy)piperidin-1-yl)phenyl)thiazole-4-sulfonamide] | 6 µM | 5 µM |  |  |  | 
